{"source": "paper PMC10906223", "about": "(JCI Insight, 2024)", "key": {"diabetic NOD mice [1]": {"tested_on": "diabetic NOD mice", "assay": "Intraperitoneal glucose tolerance test in NOD mice", "format": "in vivo, mouse", "parameters": "Blood glucose, IPGTT (Figure 6D): unit not given here", "conditions": "for Blood glucose, IPGTT (Figure 6D): Diabetic", "description": "Following 5 hours of fasting, NOD mice were injected with 20% sterile glucose solution (i.p. […] body weight; at the volume of 10 times of the body weight). Blood glucose levels were measured before injection by tail nick. Following injection, blood glucose levels were measured at time points of 15, 30, 45, 60, 90, 120, and 180 minutes by using the glucometer. […] Glucose tolerance test was done at 3 time points (8, 14, and 24 hours) after the final WCDD301 administration. Data were plotted using GraphPad Prism software version 4."}, "diabetic NOD mice [2]": {"tested_on": "diabetic NOD mice", "assay": "Plasma glucagon in NOD mice after treatment", "format": "in vivo, mouse", "parameters": "Plasma glucagon: unit not given beside the values", "description": "Terminal blood was collected into microfuge tubes containing K2-EDTA (supplemented by 45 mM phenylmethylsulphonyl fluoride and 0.77 μM aprotinin) through cardiac puncture. Plasma was separated by centrifugation (2,000g for 10 minutes at 4°C) and kept at –80°C until analysis. Plasma samples with hemolysis were excluded from the study. […] Values of BUN, creatinine, ALB, ALT, and AST were determined by a Roche Cobas C501 Autoanalyzer as performed by the Washington University Diabetes Research Center Translational Diagnostics Core. Reference intervals of blood chemistry parameters for inbred NOD mice were extracted from the Mouse Phenome Database (https://phenome.jax.org/)."}, "[3]": {"tested_on": "α cells of NOD mice islets", "assay": "α cell numbers and sizes in islets of NOD mice", "format": "in vivo, mouse", "conditions": "11-week administration; Supplemental Figure 7", "description": "Pancreata of NOD mice (females, n = 3 per group) from nondiabetic, diabetic placebo-treated, and diabetic WCDD301-treated cohorts were excised; fixed in 10% buffered formalin for 5 days; and treated with ethanol 70% for 2 days before paraffin embedding. The paraffin-embedded tissue blocks were longitudinally sectioned in 5 μm slices and fixed on microscope slides. Following deparaffinization (through incubation in graded xylene, graded ethanol, and PBS), permeabilization (using 0.1% Triton X-100 in PBS), and background blocking (using 5% BSA solution containing 0.1% Tween 20), samples were incubated with primary antibodies (mouse anti-glucagon, Abcam, catalog ab10988; above-mentioned rabbit anti-EphA4), secondary antibodies (goat anti-mouse IgG Alexa Fluor 488; Invitrogen, catalog A-11001; goat anti-rabbit IgG Alexa Fluor 633, Invitrogen, catalog A-21070), SPY555-Actin (Cytoskeleton, catalog SC202), and DAPI. Image acquisition and analysis were performed as for dispersed islet cells. […] ROIs were manually drawn around each islet, background signal was removed by thresholding, and intensity of glucagon signal was determined and normalized by the islet surface area. To determine sizes of α cells per islet, ROIs were manually drawn around α cells in each islet. […]"}, "diabetic NOD mice [4]": {"tested_on": "diabetic NOD mice", "assay": "Hematoxylin-Eosin staining of pancreatic islets of NOD mice", "format": "in vivo, mouse", "conditions": "WCDD301-treated diabetic NOD mice"}, "[5]": {"assay": "Plasma stability assay, human plasma", "format": "in vitro ADME", "conditions": "for Ln (% Remaining): human plasma, 37°C, Figure 5A", "description": "Pooled frozen plasma of CD-1 mice (n = 20; catalog MSE00PLK2M2N, Beijing Vital River Laboratory Animal Technology) or humans (n = 6, catalog […]2P2N, Bioreclamation IVT), equal numbers of males and females, was thawed in a 37°C water bath, and residual clots were removed by centrifugation (500g for 5 minutes). Plasma (98 μL) was aliquoted in each well of 96-well reaction plates using an Apricot automation workstation. WCDD301 (100 μM) or propantheline bromide (100 μM, as a positive control) was added (2 μL/well) to sets of wells assigned to blank or time points (T0, T10, T30, T60, and T120 minutes) and incubated at 37°C. At each time point, the reaction was stopped by adding stop solution (500 μL; a mixture of 200 ng/mL of tolbutamide and labetalol in acetonitrile), mixed thoroughly, sealed, shaken (20 minutes), and centrifuged (1,750g, 4°C, 20 minutes). A total of 150 μL of the supernatant from each well of the reaction plate was transferred to its corresponding bioanalysis plate for LC-MS/MS analysis. The remaining level (%) of the WCDD301 was calculated using the following equation: remaining (%) = (PAR at each time point/PAR at T0) × 100. PAR stands for the peak area ratio of the WCDD301 versus internal standard."}, "[6]": {"assay": "Pharmacokinetics in CD-1 mice, subcutaneous or intravenous", "format": "in vivo, mouse", "conditions": "for Plasma concentration (Supplemental Figure 5A) / Plasma concentration (Supplemental Figure 5B): individual mice M1-M3, route not given", "description": "CD-1 mice were injected with WCDD301 subcutaneously (1 mg/kg, n = 3) or intravenously (1 mg/kg, n = 3), and blood was collected from saphenous vein directly into K2-EDTA–containing microcentrifuge tubes at 5, 10, and 15 minutes postdosing. An aliquot of 20 μL plasma was deproteinized using 200 μL of internal standard solution (100 ng/mL of labetalol and tolbutamide in acetonitrile), incubated for 10 minutes at RT, and centrifuged at 1,800g for 10 minutes at 4°C. Following 1:1 dilution of the supernatant with deionized water, 1 μL of the diluted sample was used for LC-MS/MS analysis (TripleQuad 6500, column: ACQUITY UPLC BEH C18 2.1 × 50 mm, 1.7 μm; flow rate: 0.6 mL/min, retention time: 1.60/1.78 WCDD301/labetalol)."}}, "note": "Where “and” joins values, the source holds several entries; their conditions need not be identical. Equal entries are not always repeated."}
{"smiles": "CC(=O)OCC(N)(COC(C)=O)COC(C)=O", "note": "[WCDD301, 2-(acetoxymethyl)-2-aminopropane-1,3-diyl diacetate]", "values": [{"measurement": "Blood glucose, IPGTT (Figure 6D)", "setting": "diabetic NOD mice [1]; 8h after WCDD301 dosing (first group, c4-c6), 0 min", "result": "135 and 151 and 125"}, {"measurement": "Blood glucose, IPGTT (Figure 6D)", "setting": "diabetic NOD mice [1]; 8h after WCDD301 dosing (first group, c4-c6), 15 min", "result": "160 and 159 and 158"}, {"measurement": "Blood glucose, IPGTT (Figure 6D)", "setting": "diabetic NOD mice [1]; 8h after WCDD301 dosing (first group, c4-c6), 30 min", "result": "175 and 165 and 162"}, {"measurement": "Blood glucose, IPGTT (Figure 6D)", "setting": "diabetic NOD mice [1]; 8h after WCDD301 dosing (first group, c4-c6), 45 min", "result": "165 and 175"}, {"measurement": "Blood glucose, IPGTT (Figure 6D)", "setting": "diabetic NOD mice [1]; 8h after WCDD301 dosing (first group, c4-c6), 60 min", "result": "155 and 145 and 135"}, {"measurement": "Blood glucose, IPGTT (Figure 6D)", "setting": "diabetic NOD mice [1]; 8h after WCDD301 dosing (first group, c4-c6), 90 min", "result": "150 and 135 and 114"}, {"measurement": "Blood glucose, IPGTT (Figure 6D)", "setting": "diabetic NOD mice [1]; 8h after WCDD301 dosing (second group, c7-c9), 0 min", "result": "140 and 151 and 137"}, {"measurement": "Blood glucose, IPGTT (Figure 6D)", "setting": "diabetic NOD mice [1]; 8h after WCDD301 dosing (second group, c7-c9), 15 min", "result": "210 and 206 and 205"}, {"measurement": "Blood glucose, IPGTT (Figure 6D)", "setting": "diabetic NOD mice [1]; 8h after WCDD301 dosing (second group, c7-c9), 30 min", "result": "340 and 307 and 321"}, {"measurement": "Blood glucose, IPGTT (Figure 6D)", "setting": "diabetic NOD mice [1]; 8h after WCDD301 dosing (second group, c7-c9), 45 min", "result": "380 and 356 and 372"}, {"measurement": "Blood glucose, IPGTT (Figure 6D)", "setting": "diabetic NOD mice [1]; 8h after WCDD301 dosing (second group, c7-c9), 60 min", "result": "320 and 395 and 372"}, {"measurement": "Blood glucose, IPGTT (Figure 6D)", "setting": "diabetic NOD mice [1]; 8h after WCDD301 dosing (second group, c7-c9), 90 min", "result": "295 and 386 and 368"}, {"measurement": "Blood glucose, IPGTT (Figure 6D)", "setting": "diabetic NOD mice [1]; 8h after WCDD301 dosing (second group, c7-c9), 120 min", "result": "135 and 159 and 148"}, {"measurement": "Blood glucose, IPGTT (Figure 6D)", "setting": "diabetic NOD mice [1]; 14h after WCDD301 dosing, 0 min", "result": "119 and 140 and 138"}, {"measurement": "Blood glucose, IPGTT (Figure 6D)", "setting": "diabetic NOD mice [1]; 14h after WCDD301 dosing, 15 min", "result": "520 and 480 and 450"}, {"measurement": "Blood glucose, IPGTT (Figure 6D)", "setting": "diabetic NOD mice [1]; 14h after WCDD301 dosing, 30 min", "result": "650 and 550"}, {"measurement": "Blood glucose, IPGTT (Figure 6D)", "setting": "diabetic NOD mice [1]; 14h after WCDD301 dosing, 45 min", "result": 650}, {"measurement": "Blood glucose, IPGTT (Figure 6D)", "setting": "diabetic NOD mice [1]; 14h after WCDD301 dosing, 60 min", "result": "650 and 550 and 468"}, {"measurement": "Blood glucose, IPGTT (Figure 6D)", "setting": "diabetic NOD mice [1]; 14h after WCDD301 dosing, 90 min", "result": "555 and 450 and 350"}, {"measurement": "Blood glucose, IPGTT (Figure 6D)", "setting": "diabetic NOD mice [1]; 14h after WCDD301 dosing, 120 min", "result": "410 and 325 and 286"}, {"measurement": "Blood glucose, IPGTT (Figure 6D)", "setting": "diabetic NOD mice [1]; 14h after WCDD301 dosing, 180 min", "result": "158 and 151 and 140"}, {"measurement": "Blood glucose, IPGTT (Figure 6D)", "setting": "diabetic NOD mice [1]; 24h after WCDD301 dosing, 0 min", "result": "320 and 290 and 325"}, {"measurement": "Blood glucose, IPGTT (Figure 6D)", "setting": "diabetic NOD mice [1]; 24h after WCDD301 dosing, 15 min", "result": "590 and 480 and 552"}, {"measurement": "Blood glucose, IPGTT (Figure 6D)", "setting": "diabetic NOD mice [1]; 24h after WCDD301 dosing, 30 min", "result": "650 and 590 and 610"}, {"measurement": "Blood glucose, IPGTT (Figure 6D)", "setting": "diabetic NOD mice [1]; 24h after WCDD301 dosing, 45 min", "result": 650}, {"measurement": "Blood glucose, IPGTT (Figure 6D)", "setting": "diabetic NOD mice [1]; 24h after WCDD301 dosing, 60 min", "result": "590 and 600 and 580"}, {"measurement": "Blood glucose, IPGTT (Figure 6D)", "setting": "diabetic NOD mice [1]; 24h after WCDD301 dosing, 90 min", "result": "520 and 590 and 570"}, {"measurement": "Blood glucose, IPGTT (Figure 6D)", "setting": "diabetic NOD mice [1]; 24h after WCDD301 dosing, 120 min", "result": "490 and 520 and 505"}, {"measurement": "Blood glucose, IPGTT (Figure 6D)", "setting": "diabetic NOD mice [1]; 24h after WCDD301 dosing, 180 min", "result": "510 and 550 and 512"}, {"measurement": "Glucose tolerance", "setting": "diabetic NOD mice [1]; NOD mice versus placebo-treated diabetic control", "result": "Glucose tolerance was improved"}, {"measurement": "Plasma glucagon", "setting": "diabetic NOD mice [2]; WCDD301-treated diabetic NOD mice, per mouse, Figure 6B", "result": "22.15 and 11 and 44 and 25 and 47"}, {"measurement": "Effect on plasma glucagon", "setting": "diabetic NOD mice [2]; diabetic NOD mice", "result": "suppression of glucagon levels"}, {"measurement": "Numbers or sizes of α cells (histology)", "setting": "[3]", "result": "did not indicate any alterations in numbers or sizes of α cells"}, {"measurement": "Mononuclear cell infiltration and edema (Hematoxylin-Eosin)", "setting": "diabetic NOD mice [4]", "result": "no mononuclear infiltration or apparent edema"}, {"measurement": "half-life at 2 µM", "setting": "[5]; both sexes, human, plasma", "result": 4.82, "unit": "h"}, {"measurement": "Stability in human plasma versus mouse plasma", "setting": "[5]; human higher than mouse", "result": "> 2.7", "unit": "fold"}, {"measurement": "Ln (% Remaining)", "setting": "[5]; 10 min", "result": -0.03128}, {"measurement": "Ln (% Remaining)", "setting": "[5]; 30 min", "result": -0.148}, {"measurement": "Ln (% Remaining)", "setting": "[5]; 60 min", "result": 0.05816}, {"measurement": "Ln (% Remaining)", "setting": "[5]; 120 min", "result": 0.01827}, {"measurement": "Plasma concentration (Supplemental Figure 5A)", "setting": "[6]; 5 min", "result": "64.8 and 47.6 and 146"}, {"measurement": "Plasma concentration (Supplemental Figure 5B)", "setting": "[6]; 5 min", "result": "57.9 and 180 and 135"}, {"measurement": "Plasma concentration (Supplemental Figure 5A)", "setting": "[6]; 10 min", "result": "44.3 and 27.1 and 52.9"}, {"measurement": "Plasma concentration (Supplemental Figure 5B)", "setting": "[6]; 10 min", "result": "11 and 18.9 and 12.4"}, {"measurement": "Plasma concentration (Supplemental Figure 5A)", "setting": "[6]; 15 min", "result": "31.3 and 22.7 and 21.7"}, {"measurement": "Plasma concentration (Supplemental Figure 5B)", "setting": "[6]; 15 min", "result": "0 and 6.64 and 3.56"}, {"measurement": "Plasma concentration, subcutaneous compared with intravenous", "setting": "[6]; CD-1 mice, 1 mg/kg, 15 minutes", "result": "increased plasma concentrations of WCDD301 at 15 minutes following subcutaneous injection"}]}
